Our source for the inhibition and melting point values is patent publication US7132546B2, “Aniline derivatives or salts thereof and cytokine production inhibitors containing the same” (Ishihara Sangyo Kaisha, Ltd., priority 2000, dated 2006).

For data set [1], the system named is interleukin 5 (IL-5) production. As to the kind of experiment: Cytokine production inhibitory effect: IL-5 production by murine spleen cells treated with anti-mouse CD3 antibody and IL-2 (ELISA). The format is cell-based, Balb/c mice. The following applies: test compound 100 ppm, anti-CD3 antibody + IL-2, 40 to 48 hours, read-out: IL-5 production inhibitory ratio (%). In general terms: ELISA stands for enzyme-linked immunosorbent assay.

For data set [2], the system named is interferon γ (IFN-γ) production. As to the kind of experiment: Cytokine production inhibitory effect: IFN-γ production by murine spleen cells treated with anti-mouse CD3 antibody and IL-2 (ELISA). Type of data set: cell-based, Balb/c mice. The conditions noted are these: test compound 100 ppm, anti-CD3 antibody + IL-2, 40 to 48 hours, read-out: IFN-γ production inhibitory ratio (%).

The term melting point denotes the temperature of the solid-liquid transition. Compound `O=C(Nc1ccc(/N=N/c2ccccc2)cc1)c1cc([N+](=O)[O-])ccc1Cl` [compound 67] registered a melting point of 187 °C. Also, the inhibition at 100 ppm in data set [1] came out at 99%. Also, the inhibition at 100 ppm in data set [2] was 100%.

The compound `CSc1ccc(Cl)c(C(=O)Nc2ccc(C34CC5CC(CC(C5)C3)C4)cc2C)c1` [compound 68] returned a melting point of 65 °C. Moreover, the inhibition at 100 ppm in data set [1] is 92%. For the same compound, the inhibition at 100 ppm in data set [2] stood at 99%.

On to `O=C(Nc1ccc(Sc2ccccc2)cc1)c1cc([N+](=O)[O-])ccc1Cl` [compound 69], for which the melting point was in the range of 180 to 183 °C. Also, the inhibition at 100 ppm in data set [1] is 100%. The inhibition at 100 ppm in data set [2] was 100%.

The compound `Cc1cc(C23CC4CC(CC(C4)C2)C3)ccc1NC(=O)c1cc(C(F)(F)F)ccc1Cl` [compound 70] gave a melting point of 69 °C. For the same compound, the inhibition at 100 ppm in data set [1] was 98%. For the same compound, in data set [2], the inhibition at 100 ppm was 99%.

In the case of `Cc1ccc(NC(=O)c2ccc([N+](=O)[O-])cc2Cl)c(C)c1` [compound 73], the melting point fell in the range of 181 to 183 °C. The inhibition at 100 ppm in data set [1] worked out at 64%. In data set [2], the inhibition at 100 ppm is 28%.

`Cc1cc(C23CC4CC(CC(C4)C2)C3)ccc1NC(=O)c1ccc([N+](=O)[O-])cc1` [compound 74] yielded a melting point of 289 to 290 °C. In data set [1], the inhibition at 100 ppm was determined as 43%. In data set [2], the inhibition at 100 ppm was 10%.

As to `Cc1cc(C23CC4CC(CC(C4)C2)C3)ccc1NC(=O)c1cc(S(C)(=O)=O)ccc1Cl` [compound 75], the melting point is 96 to 100 °C. Also, the inhibition at 100 ppm in data set [1] came out at 100%. In data set [2], the inhibition at 100 ppm is 100%.

Regarding `Cc1cc(C23CC4CC(CC(C4)C2)C3)ccc1NC(=O)c1cc(C#N)ccc1Cl` [compound 76], the melting point was 184 to 187 °C. For the same compound, in data set [1], the inhibition at 100 ppm came out at 96%. Moreover, the inhibition at 100 ppm in data set [2] is 96%.

Compound `O=C(Nc1ccc(OCc2ccccc2)cc1)c1cc([N+](=O)[O-])ccc1Cl` [compound 77] displayed a melting point of 176 to 178 °C. Besides, the inhibition at 100 ppm in data set [1] was 74%. In data set [2], the inhibition at 100 ppm stood at 50%.

`O=C(Nc1ccc(SCc2ccccc2)cc1)c1cc([N+](=O)[O-])ccc1Cl` [compound 78] came in with a melting point of 156 to 157 °C. Moreover, in data set [1], the inhibition at 100 ppm was 78%. Besides, the inhibition at 100 ppm in data set [2] was 91%.

Compound `O=C(Nc1ccc(CSc2ccccc2)cc1)c1cc([N+](=O)[O-])ccc1Cl` [compound 79] displayed a melting point of 176 to 180 °C. The inhibition at 100 ppm in data set [1] was found to be 62%. For the same compound, in data set [2], the inhibition at 100 ppm was determined as 90%.

Regarding `O=[N+]([O-])c1ccc(Cl)c(S(=O)(=O)Nc2ccc(Oc3ncc(C(F)(F)F)cc3Cl)cc2)c1` [compound 80], the melting point came to 171 °C. In data set [1], the inhibition at 100 ppm amounted to 100%. In addition, the inhibition at 100 ppm in data set [2] is 100%.

Compound `O=C(Nc1ccc(CSc2ncc(C(F)(F)F)cc2Cl)cc1)c1cc([N+](=O)[O-])ccc1Cl` [compound 82] returned a melting point of 207 to 208 °C. For the same compound, the inhibition at 100 ppm in data set [1] turned out to be 90%. Further, the inhibition at 100 ppm in data set [2] stood at 99%.

`O=C(Nc1ccc(-c2ccccc2)cc1)c1cc([N+](=O)[O-])ccc1Cl` [compound 83] displayed a melting point of 203 to 206 °C. Further, the inhibition at 100 ppm in data set [1] was 90%. In addition, the inhibition at 100 ppm in data set [2] came to 76%.

`N#Cc1ccc(Cl)c(C(=O)Nc2ccc(Oc3ccccc3)cc2)c1` [compound 85] registered a melting point of 143 °C. Moreover, the inhibition at 100 ppm in data set [1] turned out to be 91%. Further, in data set [2], the inhibition at 100 ppm worked out at 86%.

`N#Cc1ccc(Cl)c(C(=O)Nc2ccc(Oc3ncc(C(F)(F)F)cc3Cl)cc2)c1` [compound 86]: the melting point fell in the range of 209 to 212 °C. In data set [1], the inhibition at 100 ppm was 87%. The inhibition at 100 ppm in data set [2] came out at 29%.

`N#Cc1ccc(Cl)c(C(=O)Nc2ccc(Sc3ncc(C(F)(F)F)cc3Cl)cc2)c1` [compound 87]: the melting point was in the range of 229 to 231 °C. For the same compound, in data set [1], the inhibition at 100 ppm was 100%. For the same compound, the inhibition at 100 ppm in data set [2] is 100%.

As for `CS(=O)(=O)c1ccc(Cl)c(C(=O)Nc2ccc(Oc3ncc(C(F)(F)F)cc3Cl)cc2)c1` [compound 88], the melting point worked out at 221 °C. The inhibition at 100 ppm in data set [1] turned out to be 72%. Further, the inhibition at 100 ppm in data set [2] is 17%.

Take `O=C(Nc1ccc(Oc2ccc(C(F)(F)F)cc2Cl)cc1)c1cc([N+](=O)[O-])ccc1Cl` [compound 89]: the melting point turned out to be 168 °C. In data set [1], the inhibition at 100 ppm came to 87%. Further, in data set [2], the inhibition at 100 ppm turned out to be 99%.

Compound `O=[N+]([O-])c1ccc(Cl)c(S(=O)(=O)Nc2ccc(Sc3ncc(C(F)(F)F)cc3Cl)cc2)c1` [compound 90] returned a melting point of 224 to 226 °C. The inhibition at 100 ppm in data set [1] was 100%. Further, the inhibition at 100 ppm in data set [2] was determined as 100%.

In turn, `Cc1cc(Oc2ncc(C(F)(F)F)cc2Cl)ccc1NC(=O)c1cc([N+](=O)[O-])ccc1Cl` [compound 91] came in with a melting point of 219 to 221 °C. Further, the inhibition at 100 ppm in data set [1] was found to be 53%. In addition, the inhibition at 100 ppm in data set [2] came out at 1%.

The compound `O=C(Nc1ccc(CO)cc1)c1cc([N+](=O)[O-])ccc1Cl` [compound 92] returned a melting point of 201 to 204 °C. Moreover, the inhibition at 100 ppm in data set [1] turned out to be 99%. The inhibition at 100 ppm in data set [2] amounted to 100%.

`O=C(Nc1ccc(C23CC4CC(CC(C4)C2)C3)cc1)c1cc([N+](=O)[O-])ccc1F` [compound 93]: the melting point is 224 to 228 °C. In data set [1], the inhibition at 100 ppm amounted to 100%. In data set [2], the inhibition at 100 ppm was 100%.

`O=C(Nc1ccc(C23CC4CC(CC(C4)C2)C3)cc1)c1cc([N+](=O)[O-])ccc1Br` [compound 94] displayed a melting point of 273 to 275 °C. In addition, the inhibition at 100 ppm in data set [1] turned out to be 85%. The inhibition at 100 ppm in data set [2] came to 53%.

For `O=C(Nc1ccc(Oc2ccc(C(F)(F)F)cc2Cl)cc1)c1cc([N+](=O)[O-])ccc1Br` [compound 96], the melting point was 167 to 172 °C. Further, the inhibition at 100 ppm in data set [1] was 100%. The inhibition at 100 ppm in data set [2] worked out at 100%.

On to `O=C(Nc1ccc(CCOc2ncc(C(F)(F)F)cc2Cl)cc1)c1cc([N+](=O)[O-])ccc1Cl` [compound 97], for which the melting point lay within 131 to 134 °C. Moreover, the inhibition at 100 ppm in data set [1] worked out at 77%. The inhibition at 100 ppm in data set [2] was determined as 84%.

`O=C(Nc1ccc(Oc2ncc(C(F)(F)F)cc2Cl)cc1)c1cc([N+](=O)[O-])ccc1F` [compound 98] displayed a melting point of 168 to 170 °C. Moreover, in data set [1], the inhibition at 100 ppm was 96%. In addition, the inhibition at 100 ppm in data set [2] was 99%.

As to `O=C(Nc1ccc(Oc2ncc(C(F)(F)F)cc2Cl)cc1)c1cc([N+](=O)[O-])ccc1Br` [compound 99], the melting point was 191 to 195 °C. Besides, the inhibition at 100 ppm in data set [1] was 100%. Also, the inhibition at 100 ppm in data set [2] amounted to 89%.

As to `COC(=O)c1cc(Oc2ncc(C(F)(F)F)cc2Cl)ccc1NC(=O)c1cc([N+](=O)[O-])ccc1Cl` [compound 100], the melting point lay in the range of 154 to 158 °C. In data set [1], the inhibition at 100 ppm was found to be 92%. Besides, in data set [2], the inhibition at 100 ppm worked out at 93%.

The compound `O=C(Nc1ccc(Oc2ncc(C(F)(F)F)cc2Cl)cc1C(=O)O)c1cc([N+](=O)[O-])ccc1Cl` [compound 101] yielded a melting point of 240 to 245 °C. Also, in data set [1], the inhibition at 100 ppm was determined as 100%. The inhibition at 100 ppm in data set [2] turned out to be 100%.

The compound `Cc1cc(Oc2ncc(C(F)(F)F)cc2Cl)c(C)cc1NC(=O)c1cc([N+](=O)[O-])ccc1Cl` [compound 105] displayed a melting point of 296 to 298 °C. Moreover, in data set [1], the inhibition at 100 ppm is 55%. In data set [2], the inhibition at 100 ppm worked out at 25%.

On to `COC(=O)c1cc(NC(=O)c2cc([N+](=O)[O-])ccc2Cl)ccc1Oc1ncc(C(F)(F)F)cc1Cl` [compound 107], for which the melting point was in the range of 226 to 229 °C. Moreover, in data set [1], the inhibition at 100 ppm was determined as 99%. For the same compound, the inhibition at 100 ppm in data set [2] was 97%.

`COc1cc(NC(=O)c2cc([N+](=O)[O-])ccc2Cl)ccc1Oc1ncc(C(F)(F)F)cc1Cl` [compound 109] showed a melting point of 190 to 193 °C. The inhibition at 100 ppm in data set [1] turned out to be 100%. In addition, the inhibition at 100 ppm in data set [2] worked out at 95%.

`O=C(Nc1ccc(OCC23CC4CC(CC(C4)C2)C3)cc1)c1cc([N+](=O)[O-])ccc1Cl` [compound 110] returned a melting point of 175 to 180 °C. Moreover, in data set [1], the inhibition at 100 ppm is 99%. Also, the inhibition at 100 ppm in data set [2] came out at 100%.

For `O=C(Nc1ccc(OC2C3CC4CC(C3)CC2C4)cc1)c1cc([N+](=O)[O-])ccc1Cl` (stereo not drawn) [compound 111], the melting point lay in the range of 178 to 180 °C. In addition, the inhibition at 100 ppm in data set [1] was determined as 99%. In data set [2], the inhibition at 100 ppm is 99%.

The compound `O=C(Nc1cc(Cl)c(Oc2ncc(C(F)(F)F)cc2Cl)c(Cl)c1)c1cc([N+](=O)[O-])ccc1Cl` [compound 112] gave a melting point of 189 to 191 °C. In data set [1], the inhibition at 100 ppm was determined as 100%. Moreover, the inhibition at 100 ppm in data set [2] came out at 100%.

For the compound `O=C(Nc1ccc(Oc2ncc(C(F)(F)F)cc2Cl)c(Cl)c1)c1cc([N+](=O)[O-])ccc1Cl` [compound 113], the melting point was 222 to 225 °C. Moreover, the inhibition at 100 ppm in data set [1] is 96%. Further, the inhibition at 100 ppm in data set [2] was 97%.

With `NC(=O)c1cc(NC(=O)c2cc([N+](=O)[O-])ccc2Cl)ccc1Oc1ncc(C(F)(F)F)cc1Cl` [compound 116], the melting point fell in the range of 239 to 244 °C. The inhibition at 100 ppm in data set [1] amounted to 100%. Moreover, the inhibition at 100 ppm in data set [2] came to 99%.

As for `Cc1cc(NS(=O)(=O)c2cc([N+](=O)[O-])ccc2Cl)ccc1Oc1ncc(C(F)(F)F)cc1Cl` [compound 117], the melting point lay in the range of 233 to 236 °C. In addition, the inhibition at 100 ppm in data set [1] is 100%. For the same compound, in data set [2], the inhibition at 100 ppm came out at 100%.

Compound `Cc1cc(NC(=O)c2cc(C#N)ccc2Cl)ccc1Oc1ncc(C(F)(F)F)cc1Cl` [compound 118] registered a melting point of 221 to 223 °C. In addition, the inhibition at 100 ppm in data set [1] worked out at 78%. Also, the inhibition at 100 ppm in data set [2] worked out at 47%.
